The source made the active and inactive calls. The rule behind the calls is not given here.
Assays:
Mus musculus [1] = test: Antiinflammatory activity in LPS-induced C57/BL6 mouse model of acute lung injury assessed as reduction in lung tissue destruction at 10 mg/kg, ip pretreated for 30 mins followed by LPS challenge measured after 6 hrs by hematoxylin and eosin staining based microscopic analysis; format: functional, organism-based
Mus musculus [2] = test: Antiinflammatory activity in LPS-induced C57/BL6 mouse model of acute lung injury assessed as reduction in pulmonary congestion at 10 mg/kg, ip pretreated for 30 mins followed by LPS challenge measured after 6 hrs by hematoxylin and eosin staining based microscopic analysis; format: functional, organism-based
Mus musculus [3] = test: Antiinflammatory activity in LPS-induced C57/BL6 mouse model of acute lung injury assessed as reduction in IL6 mRNA expression at 10 mg/kg, ip pretreated for 30 mins followed by LPS challenge measured after 6 hrs by SYBR green dye based RT-qPCR analysis; format: functional, organism-based
Peritoneal macrophage [4] = test: Antiinflammatory activity in ICR mouse primary peritoneal macrophages assessed as inhibition of LPS-induced TNFalpha production preincubated for 2 hrs followed by LPS stimulation and measured after 22 hrs by ELISA; format: functional, cell-based
Peritoneal macrophage [5] = test: Antiinflammatory activity in ICR mouse primary peritoneal macrophages assessed as inhibition of LPS-induced IL-6 production at 20 uM preincubated for 60 mins followed by LPS stimulation and measured after 24 hrs by ELISA relative to control; format: functional
Mus musculus [6] = test: Antiinflammatory activity in LPS-induced C57/BL6 mouse model of acute lung injury assessed as reduction in thicken alveolar septa at 10 mg/kg, ip pretreated for 30 mins followed by LPS challenge measured after 6 hrs by hematoxylin and eosin staining based microscopic analysis; format: functional, organism-based
Mus musculus [7] = test: Antiinflammatory activity in LPS-induced C57/BL6 mouse model of acute lung injury assessed as reduction in IL1beta mRNA expression at 10 mg/kg, ip pretreated for 30 mins followed by LPS challenge measured after 6 hrs by SYBR green dye based RT-qPCR analysis; format: functional, organism-based
Mus musculus [8] = test: Antiinflammatory activity in LPS-induced C57/BL6 mouse model of acute lung injury assessed as reduction in interstitial edema at 10 mg/kg, ip pretreated for 30 mins followed by LPS challenge measured after 6 hrs by hematoxylin and eosin staining based microscopic analysis; format: functional, organism-based
Mus musculus [9] = test: Antiinflammatory activity in LPS-induced C57/BL6 mouse model of acute lung injury assessed as reduction in TNFalpha mRNA expression at 10 mg/kg, ip pretreated for 30 mins followed by LPS challenge measured after 6 hrs by SYBR green dye based RT-qPCR analysis; format: functional, organism-based

IC50 (Peritoneal macrophage [4]): 890 nM
SMILES: COc1cc(-c2csc(NC(=O)CCN3CCN(Cc4cccc([N+](=O)[O-])c4)CC3)n2)ccc1O
Activity (Mus musculus [1]): Active
Activity (Mus musculus [2]): Active
Activity (Mus musculus [3]): Active
inhibition (Peritoneal macrophage [4]): Dose-dependent effect
inhibition at 20 µM (Peritoneal macrophage [5]): 95%
Activity (Mus musculus [6]): Active
Activity (Mus musculus [7]): Active
Activity (Mus musculus [8]): Active
Activity (Mus musculus [9]): Active

— ChEMBL document CHEMBL4325844, “Development of 2-amino-4-phenylthiazole analogues to disrupt myeloid differentiation factor 88 and prevent inflammatory responses in acute lung injury” (Eur J Med Chem, 2019)
